From US12577206B2 (BRISTOL-MYERS SQUIBB COMPANY, priority 2020, dated 2026)
pEC50: −log10 of the molar value.

Key:
human FPR2 = biological target: T1, human FPR2 (Homo sapiens, UniProt P25090); test: FPR2 cyclic adenosine monophosphate (cAMP) assay; format: cell-based; settings: CHO cells overexpressing human FPR2; forskolin 5 μM; inhibition of cAMP production; HTRF; read-out: hFPR2 cAMP2 EC50
T1 sequence (P25090 1-351): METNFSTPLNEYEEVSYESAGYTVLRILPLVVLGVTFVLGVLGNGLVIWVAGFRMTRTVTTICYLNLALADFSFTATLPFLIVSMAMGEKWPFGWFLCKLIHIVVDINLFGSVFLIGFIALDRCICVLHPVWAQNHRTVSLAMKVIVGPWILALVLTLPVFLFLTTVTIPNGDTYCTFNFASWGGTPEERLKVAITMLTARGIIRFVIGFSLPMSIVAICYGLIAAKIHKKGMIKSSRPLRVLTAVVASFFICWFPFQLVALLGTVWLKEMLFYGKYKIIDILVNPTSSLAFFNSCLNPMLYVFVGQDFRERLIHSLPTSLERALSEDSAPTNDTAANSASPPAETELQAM
Outline: (§1)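 CHO cells overexpressing human FPR1 (4,000/well) or FPR2 (2,000/well) were incubated 30 min at room temperature with compound (0.020 nM to 100 μM, 1% DMSO), IBMX 200 μM, and forskolin at 10 μM (FPR1) or 5 μM (FPR2), all final. HTRF cAMP read-out; inhibition fitted by 4-parameter logistic equation.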

human FPR1 = biological target: T2, human FPR1 (Homo sapiens, UniProt P21462); test: FPR1 cyclic adenosine monophosphate (cAMP) assay; format: cell-based; settings: CHO cells overexpressing human FPR1; forskolin 10 μM; inhibition of cAMP production; HTRF; read-out: hFPR1 cAMP2 EC50
T2 sequence (P21462 1-350): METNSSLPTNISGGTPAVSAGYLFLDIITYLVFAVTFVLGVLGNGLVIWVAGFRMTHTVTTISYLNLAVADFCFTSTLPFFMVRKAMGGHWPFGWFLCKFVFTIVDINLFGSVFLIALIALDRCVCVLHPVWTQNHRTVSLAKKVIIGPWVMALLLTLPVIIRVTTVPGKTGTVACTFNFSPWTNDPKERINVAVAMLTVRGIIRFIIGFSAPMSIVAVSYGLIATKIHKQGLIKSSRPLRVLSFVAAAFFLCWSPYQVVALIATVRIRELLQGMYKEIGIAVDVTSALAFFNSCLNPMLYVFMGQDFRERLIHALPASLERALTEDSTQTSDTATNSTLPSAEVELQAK
Outline: as §1

COc1cc(F)c(-c2c(NC(=O)c3ccc(OC(F)F)cc3)c(=O)n(-c3nc(NCCO)ccc3C(F)(F)F)n2C)c(F)c1 [Example 225, N-[5-(2,6-difluoro-4-methoxyphenyl)-2-{6-[(2-hydroxyethyl)amino]-3-(trifluoromethyl)pyridin-2-yl}-1-methyl-3-oxo-2,3-dihydro-1H-pyrazol-4-yl]-4-(difluoromethoxy)benzamide]
pEC50 (human FPR2): 8.52 | pEC50 (human FPR1): < 5.00

COc1cc(F)c(-c2c(NC(=O)c3ccc(OC(F)F)cc3)c(=O)n(-c3nc(NCC(N)=O)ccc3C(F)(F)F)n2C)c(F)c1 [Example 226, N-(2-{6-[(carbamoylmethyl)amino]-3-(trifluoromethyl)pyridin-2-yl}-5-(2,6-difluoro-4-methoxyphenyl)-1-methyl-3-oxo-2,3-dihydro-1H-pyrazol-4-yl)-4-(difluoromethoxy)benzamide]
pEC50 (human FPR2): 7.89 | pEC50 (human FPR1): < 5.00

CNc1ccc(C(F)(F)F)c(-n2c(=O)c(NC(=O)c3ccc(OC(F)F)cc3)c(-c3c(F)cc(OC)cc3F)n2C)n1 [Example 227, N-[5-(2,6-difluoro-4-methoxyphenyl)-1-methyl-2-[6-(methylamino)-3-(trifluoromethyl)pyridin-2-yl]-3-oxo-2,3-dihydro-1H-pyrazol-4-yl]-4-(difluoromethoxy)benzamide]
pEC50 (human FPR2): 8.52 | pEC50 (human FPR1): < 5.30

COc1cc(F)c(-c2c(NC(=O)c3ccc(OC(F)F)cc3)c(=O)n(-c3nc(Nc4cn(C)nc4C)ccc3C(F)(F)F)n2C)c(F)c1 [Example 228, N-[5-(2,6-difluoro-4-methoxyphenyl)-2-{6-[(1,3-dimethyl-1H-pyrazol-4-yl)amino]-3-(trifluoromethyl)pyridin-2-yl}-1-methyl-3-oxo-2,3-dihydro-1H-pyrazol-4-yl]-4-(difluoromethoxy)benzamide]
pEC50 (human FPR2): 9.00 | pEC50 (human FPR1): < 5.30

COc1cc(F)c(-c2c(NC(=O)c3ccc(OC(F)F)cc3)c(=O)n(-c3nc(NCC(=O)NC4CC4)ccc3C(F)(F)F)n2C)c(F)c1 [Example 229, N-[2-(6-{[(cyclopropylcarbamoyl)methy]amino}-3-(trifluoromethyl)pyridin-2-yl)-5-(2,6-difluoro-4-methoxyphenyl)-1-methyl-3-oxo-2,3-dihydro-1H-pyrazol-4-yl]-4-(difluoromethoxy)benzamide]
pEC50 (human FPR2): 8.52 | pEC50 (human FPR1): < 5.00

COc1cc(O)c(-c2c(NC(=O)c3ccc(OC(F)F)cc3)c(=O)n(-c3nc(NCCO)ccc3C(F)(F)F)n2C)c(F)c1 [Example 230, 4-(difluoromethoxy)-N-[5-(2-fluoro-6-hydroxy-4-methoxyphenyl)-2-{6-[(2-hydroxyethyl)amino]-3-(trifluoromethyl)pyridin-2-yl}-1-methyl-3-oxo-2,3-dihydro-1H-pyrazol-4-yl]benzamide]
pEC50 (human FPR2): 8.00 | pEC50 (human FPR1): < 5.00

COc1cc(F)c(-c2c(NC(=O)c3ccc(OC(F)F)cc3)c(=O)n(-c3nc(NC4(CO)CC4)ccc3C(F)(F)F)n2C)c(F)c1 [Example 231, N-[5-(2,6-difluoro-4-methoxyphenyl)-2-(6-{[1-(hydroxymethyl)cyclopropyl]amino}-3-(trifluoromethyl)pyridin-2-yl)-1-methyl-3-oxo-2,3-dihydro-1H-pyrazol-4-yl]-4-(difluoromethoxy)benzamide]
pEC50 (human FPR2): 8.30 | pEC50 (human FPR1): < 5.00

CNC(=O)[C@H](C)Nc1ccc(C(F)(F)F)c(-n2c(=O)c(NC(=O)c3ccc(OC(F)F)cc3)c(-c3c(F)cc(OC)cc3F)n2C)n1 [Example 232, N-[5-(2,6-difluoro-4-methoxyphenyl)-1-methyl-2-(6-{[(1S)-1-(methylcarbamoyl)ethyl]amino}-3-(trifluoromethyl)pyridin-2-yl)-3-oxo-2,3-dihydro-1H-pyrazol-4-yl]-4-(difluoromethoxy)benzamide]
pEC50 (human FPR2): 8.30 | pEC50 (human FPR1): < 5.00

CNc1ccc(C(F)(F)F)c(-n2c(=O)c(NC(=O)c3ccc(OC(F)F)cc3)c(-c3c(O)cc(OC)cc3F)n2C)n1 [Example 233, 4-(difluoromethoxy)-N-[5-(2-fluoro-6-hydroxy-4-methoxyphenyl)-1-methyl-2-[6-(methylamino)-3-(trifluoromethyl)pyridin-2-yl]-3-oxo-2,3-dihydro-1H-pyrazol-4-yl]benzamide]
pEC50 (human FPR2): 8.10 | pEC50 (human FPR1): < 5.00

COc1cc(F)c(-c2c(NC(=O)c3ccc(OC(F)F)cc3)c(=O)n(-c3nc(Nc4ncn[nH]4)ccc3C(F)(F)F)n2C)c(F)c1 [Example 234, N-[5-(2,6-difluoro-4-methoxyphenyl)-1-methyl-3-oxo-2-{6-[(1H-1,2,4-triazol-5-yl)amino]-3-(trifluoromethyl)pyridin-2-yl}-2,3-dihydro-1H-pyrazol-4-yl]-4-(difluoromethoxy)benzamide]
pEC50 (human FPR2): 8.52 | pEC50 (human FPR1): 5.54

COCCNc1ccc(C(F)(F)F)c(-n2c(=O)c(NC(=O)c3ccc(OC(F)F)cc3)c(-c3c(F)cc(OC)cc3F)n2C)n1 [Example 235, N-[5-(2,6-difluoro-4-methoxyphenyl)-2-{6-[(2-methoxyethyl)amino]-3-(trifluoromethyl)pyridin-2-yl}-1-methyl-3-oxo-2,3-dihydro-1H-pyrazol-4-yl]-4-(difluoromethoxy)benzamide]
pEC50 (human FPR2): 9.00 | pEC50 (human FPR1): < 5.00

COc1cc(F)c(-c2c(NC(=O)c3ccc(OC(F)F)cc3)c(=O)n(-c3nc(N[C@H](C)CO)ccc3C(F)(F)F)n2C)c(F)c1 [Example 236, N-[5-(2,6-difluoro-4-methoxyphenyl)-2-(6-{[(2R)-1-hydroxypropan-2-yl]amino}-3-(trifluoromethyl)pyridin-2-yl)-1-methyl-3-oxo-2,3-dihydro-1H-pyrazol-4-yl]-4-(difluoromethoxy)benzamide]
pEC50 (human FPR2): 8.05 | pEC50 (human FPR1): < 5.00

COc1cc(F)c(-c2c(NC(=O)c3ccc(OC(F)F)cc3)c(=O)n(-c3nc(N[C@@H](C)CO)ccc3C(F)(F)F)n2C)c(F)c1 [Example 237, N-[5-(2,6-difluoro-4-methoxyphenyl)-2-(6-{[(2S)-1-hydroxypropan-2-yl]amino}-3-(trifluoromethyl)pyridin-2-yl)-1-methyl-3-oxo-2,3-dihydro-1H-pyrazol-4-yl]-4-(difluoromethoxy)benzamide]
pEC50 (human FPR2): 9.00 | pEC50 (human FPR1): < 5.30

CNC(=O)CNc1ccc(C(F)(F)F)c(-n2c(=O)c(NC(=O)c3ccc(OC(F)F)cc3)c(-c3c(F)cc(OC)cc3F)n2C)n1 [Example 238, N-[5-(2,6-difluoro-4-methoxyphenyl)-1-methyl-2-(6-{[(methylcarbamoyl)methyl]amino}-3-(trifluoromethyl)pyridin-2-yl)-3-oxo-2,3-dihydro-1H-pyrazol-4-yl]-4-(difluoromethoxy)benzamide]
pEC50 (human FPR2): 8.52 | pEC50 (human FPR1): < 5.00

COc1cc(F)c(-c2c(NC(=O)c3ccc(OC(F)F)cc3)c(=O)n(-c3nc(N4CCN(CC(F)(F)F)CC4)ccc3Cl)n2C)c(F)c1 [Example 239, N-(2-{3-chloro-6-[4-(2,2,2-trifluoroethyl)piperazin-1-yl]pyridin-2-yl}-5-(2,6-difluoro-4-methoxyphenyl)-1-methyl-3-oxo-2,3-dihydro-1H-pyrazol-4-yl)-4-(difluoromethoxy)benzamide]
pEC50 (human FPR2): 8.30 | pEC50 (human FPR1): 5.57
